Laboratory results reported in publication PMC11176637 (iScience, 2024).
pIC50: −log10 of the molar value.

System: VSVΔG-SW (S glycoprotein of the SARS-CoV-2 Wuhan variant)
Assay: microbe, parasite or virus in culture
Format: cell-based
Conditions: for IC50 against VSVΔG-SW: 0.3125–40 μM

With Nc1nc(Nc2ccccc2)sc1C(=O)c1ccccc1Cl [PCM-0179622, (4-amino-2-anilino-1,3-thiazol-5-yl)(o-chlorophenyl)methanone] the “IC50 against VSVΔG-SW” value was “relatively high activity”.
With COc1ccc2cc3c(N)nn(C(=O)Cc4c[nH]c5ccccc45)c3nc2c1 [PCM-0166392, 1-{6-amino-12-methoxy-2,4,5-triazatricyclo[7.4.0.0³,⁷]trideca-1,3(7),5,8,10,12-hexaen-4-yl}-2-(3-indolyl)-1-ethanone] the “IC50 against VSVΔG-SW” value was “relatively high activity”.
CNC(=O)C(C#N)(Cc1cc(Cl)cc2c1OCOC2)Cc1cc(Cl)cc2c1OCOC2 [PCM-0068389, N-methyl3-(6-chloro-2,4-dihydro-1,3-benzodioxin-8-yl)-2-[(6-chloro-2,4-dihydro-1,3-benzodioxin-8-yl)methyl]-2-cyanopropionamide] was tested, and the “IC50 against VSVΔG-SW” value was “lost all activity”.
With Cc1cccc(NC(=O)CS(=O)(=O)c2nc(-c3ccccc3)cn2-c2ccc(Cl)cc2)c1C [PCM-0163855, 2-((1-(4-chlorophenyl)-4-phenyl-1H-imidazol-2-yl)sulfonyl)-N-(2,3-dimethylphenyl)acetamide] the pIC50 (Severe acute respiratory syndrome coronavirus 2, read-out: IC50 against VSVΔG-SW) was 6.22.
